Results on one substance are retold here after US5410068A, “Succinimidyl trityl compounds and a process for preparing same” (PerSeptive Biosystems, Inc., priority 1989, dated 1995).

This series relates to streptavidin agarose. The experiment in a line: binding of biotin labeled oligonucleotides and amplified DNA to streptavidin agarose support. The settings on record: purified oligonucleotide. The protocol:
The major component of each sample was isolated by the method described in Example 12.
Aliquots of the reaction mixture taken at 5 minutes, 55 minutes and 120 minutes were analyzed by reversed-phase HPLC. The analysis indicated complete disappearance of the major component of the crude mixture in favor of a more hydrophobic product within two hours.
Streptavidin agarose (Gibco BRL, Bethesda Md.) was treated before use. The agarose was washed three times with 200 μl of 150 mM NaCl, 10 mM NaH2 PO4 pH 7.2 containing 0.05% NaN3 and 10% acetonitrile. A 25 μl aliquot of 0.5M NaCl in 80% aqueous acetic acid containing 0.5% (w/v) aminoethanethiol hydrochloride was then washed through the resin and then 100 μl of this solution was allowed to react with the streptavidin agarose for 1 hr. The resin was again washed three times with 100 μl of 150 mM NaCl, 10 mM NaH2 PO4 pH 7.2 containing .05% NaN3 and 10% acetonitrile.
Following amplication, a portion of each PCR reaction (50 μl) was incubated with pretreated (see Example 16) streptavidin agarose (100 μl) for 30 minutes. At the end of the incubation, the supernatant was removed and the streptavidin agarose was washed twice with 100 μl of 150 mM NaCl, 10 mM NaH2 PO4 pH 7.2 containing 0.05% NaN3 and 10% acetonitrile (hereafter called streptavidin buffer).The washings were combined with the supernatant. […]

{Biotin} = biotin attached to 5'-amino group

With “new product: biotinylated 5'-amino group containing partially protected 15-mer 5'-TCCCAGTCACGACGT-3' (treated with 1,6-diaminohexane) (DNA, 5' {Biotin}, backbone and methylation of C not given here; biotin via aminohexyl, partially protected)”, the “binding to streptavidin agarose” value is given as “shown to bind to streptavidin agarose”.
